A word on the inhibition: it is the percentage by which the read-out fell short of the control. Higher therefore signals strong suppression.

This is an account of results in patent publication US5703059A, “Disaccharide ligands for selectins” (British Biotech Pharmaceuticals Ltd., priority 1993, dated 1997).

The target in this experiment is T1, E-selectin (Homo sapiens, UniProt P16581).
T1 construct: expressed in transfected cells
T1 sequence (P16581 22-610): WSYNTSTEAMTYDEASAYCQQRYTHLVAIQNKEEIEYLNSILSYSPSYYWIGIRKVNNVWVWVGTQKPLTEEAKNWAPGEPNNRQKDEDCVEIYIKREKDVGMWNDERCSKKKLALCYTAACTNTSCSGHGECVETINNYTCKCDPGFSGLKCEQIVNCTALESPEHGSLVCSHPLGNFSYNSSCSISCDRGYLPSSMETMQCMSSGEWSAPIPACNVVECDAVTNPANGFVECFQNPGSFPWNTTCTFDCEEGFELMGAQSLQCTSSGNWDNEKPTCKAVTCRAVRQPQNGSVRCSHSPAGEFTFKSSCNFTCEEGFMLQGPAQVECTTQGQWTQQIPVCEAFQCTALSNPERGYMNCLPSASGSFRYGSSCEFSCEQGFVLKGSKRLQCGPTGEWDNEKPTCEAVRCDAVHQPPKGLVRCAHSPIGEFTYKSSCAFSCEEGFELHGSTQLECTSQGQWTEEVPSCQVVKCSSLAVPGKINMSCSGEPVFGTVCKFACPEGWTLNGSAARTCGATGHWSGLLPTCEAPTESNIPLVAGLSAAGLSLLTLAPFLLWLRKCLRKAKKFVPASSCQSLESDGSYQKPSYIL
Put plainly: Inhibition of E-selectin mediated adhesion of 3H-thymidine labelled U937 cells to E-selectin expressing CHO cells. The format is cell-based. Particulars: U937 binding to E-selectin expressing CHO cells, 4° C., 1 hour. As for the experimental part:
The test compounds were assayed to determine their effectiveness at inhibiting E-selectin mediated adhesion between a leucocytic cell line, U937, which expresses ligands for E-selectin, and a Chinese Hamster Ovary cell line which stably expresses E-selectin. The assay has been validated with a commercial known ligand of the E-selectin, 3'-sialyl-3-fucosyl lactose (3S'3FL).
A 96 well plate was seeded with E-selectin expressing CHO cells which were confluent on the day of the assay.
U937 cells were incubated overnight with ^3 H thymidine. (Incubation conditions: 2×10^5 U937 cells per ml, 0.0751 μCi ^3 H thymidine).
Hanks Balanced salts solution, 25 mM HEPES, 0.1% azide.
The compounds were dissolved in 1 ml of assay medium. For E8, 10% methanol was added to achieve a homogenous solution.
The pH of the compounds was adjusted to approximately pH 7.2.
The ^3 H thymidine count value at each concentration of inhibitor is the average of six replicates. Maximum binding was measured by binding U937 cells to E-Selectin CHO cells in the absence of any test compounds.
Background was measured by U937 binding to untransfected CHO cells.
On the day of assay the 96 well plate was washed 3 times in ice cold assay medium. 50 μl of test sample was added to each well and incubated on ice for 1 hour. Meanwhile the U937 cells were washed 3 times in ice cold assay medium. resuspended at a concentration of 3×10^6 cells per ml and then 50 μl was added to each plate. The plates were kept on ice and allowed to incubate at 4° C. for 1 hour. Then they were washed ×3 and the remaining cells solubilised and the radioactivity in the samples counted.
The U937 cells that were used in the 1D2 control were pre-incubated in the presence of 0.1 mg/ml gammaglobulin before addition to the plate.

Under “30.7 mM”, `COC(=O)C1(OCCCC=CC(O)CC2(O)C(C)OC(OC)C(O)C2O)CC(O)C(NC(C)=O)C(C(O)C(O)CO)O1` [E21, α-O-Methyl-4R-[{N-acetyl-α2"-neuraminidylmethyl}7'-oxy-2'R and S-hydroxy-hept-3'-en-1'-yl]-L-fucopyranoside] came in with an inhibition at 30700 µM of 21%.

`COC1OC(C)C(O)(CC(=O)CCCOC2(C(=O)O)CC(O)C(NC(C)=O)C(C(O)C(O)CO)O2)C(O)C1O` [E8, α-O-Methyl-4R-[{N-acetyl-α2"-neuraminidylsodium carboxylate}5'-oxy-2'-oxo-pent-1'-yl]-L-fucopyranoside] registered an inhibition at 26800 µM (26.8 mM, 10% methanol added) of 18.5%.

Consider `COC(=O)C1(OCCCC(=O)CC2(O)C(C)OC(OC)C(O)C2O)CC(O)C(NC(C)=O)C(C(O)C(O)CO)O1` [E7, α-O-Methyl-4R-[{5"N-acetyl-α2"-O-neuraminidylmethyl ester}-5'-oxy-2'-oxo-pent-1'-yl]-L-fucopyranoside], for which the inhibition at 17100 µM (17.1 mM) is 65%.

In turn, `CC(=O)N[C@H]1[C@H]([C@H](O)[C@H](O)CO)O[C@@](O[C@H]2[C@@H](O)[C@@H](CO)O[C@@H](O[C@H]3[C@H](O[C@@H]4O[C@@H](C)[C@@H](O)[C@@H](O)[C@@H]4O)[C@@H](O)C(O)O[C@@H]3CO)[C@@H]2O)(C(=O)O)C[C@@H]1O` (stereo partly shown) [3'S3FL, 3'-sialyl-3-fucosyl lactose, reference compound] gave an inhibition at 500 µM (0.5 mM) of 54%.
